The test system of this experiment is Human epidermoid carcinoma KB cells. In words: cell growth inhibiting effect in KB cells (MTT method). Format: cell-based. The settings on record: 72 hours culture with compound, absorbance at 590nm, concentration required to decrease the number of cells in the untreated control group by 50%. As to the method:
The cell growth inhibiting effect (IC₅₀)of the compounds obtained in the Examples described below in KB cells was determined by the following method.
Human epidermoid carcinoma KB cells (1 x 10⁴ cells/ml) prepared according to a conventional method were inoculated into each well of the 96-microwell plate (0.1ml in a well) and subjected to standing culture at 37°C under 5% CO₂ for 24 hours. To this was added a solution of one of the compounds obtained in the Examples in 10% MEM (Nissui Pharmaceutical Co. Ltd. Japan), and subjected again to standing culture at 37°C under 5% CO₂ for 72 hours. Then the culture was pipetted out, and another 0.1ml of the solution of MTT (Dojin Laboratories Japan) in 10 % MEM (1.0mg/ml) was added and incubated at 37°C for 4 hours. Then 0.1ml of the […] (Wako Pure Chemicals, Japan) was added and incubated at 37°C for further 24 hours. The absorbance at 590nm was measured and the IC₅₀ value of the compound was defined as the concentration of the compound required to decrease the number of cells in the untreated control group by 50%.
A general note: Tetrazolium assays rely on reduction of a dye to a coloured formazan, in cell work by metabolically active cells.

The source of these data is patent EP0400562A1, “Pyrrolopyrimidines, their production and use as tumoricidal agents” (Takeda Chemical Industries, Ltd., priority 1989, dated 1990).

Each structure is given as a SMILES string. In brackets after ≈: the same amount, converted by molar mass.

Take `CN(CCC1CNc2nc(N)nc(N)c21)c1ccc(C(=O)N[C@@H](CCC(=O)O)C(=O)O)cc1` (stereo partly drawn) [Example 4, N-[4-[N-[2-(2,4-diamino-6,7-dihydro-5H-pyrrolo[2,3-d]pyrimidin-5-yl)ethyl]-N-methyl]aminobenzoyl]-L-glutamic acid]: the IC₅₀ came out at 0.0025 µg/mL. Still for that read-out and setting: with `CN(CCc1c[nH]c2nc(N)nc(N)c12)c1ccc(C(=O)N[C@@H](CCC(=O)O)C(=O)O)cc1` [Example 6, N-[4-[N-[2-(2,4-diamino-7H-pyrrolo[2,3-d]pyrimidin-5-yl)ethyl]-N-methyl]aminobenzoyl]-L-glutamic acid] the figure was 0.0013 µg/mL; with `Nc1nc(N)c2c(n1)NCC2CCNc1ccc(C(=O)N[C@@H](CCC(=O)O)C(=O)O)cc1` (stereo partly shown) [Example 10], 0.0025 µg/mL.

As for `CCCCCCCC(=O)Nc1nc(S)c2c(CNCc3ccc(C(=O)N[C@@H](CCC(=O)OCC)C(=O)OCC)cc3)c[nH]c2n1` [Example 13, diethyl N-[4-[N-(4-mercapto-2-octanoylamino-7H-pyrrolo[2,3-d]pyrimidin-5-ylmethyl)aminomethyl]benzoyl] -L-glutamate], the IC50 (Homo sapiens, read-out: IC₅₀) was found to be 5 ng/mL (≈ 7.8 nM).
